# Reference: patent US9067922B2, “Chemical compounds” (Pfizer Limited, priority 2013, dated 2015)
# Target: URAT-1 transporter (Homo sapiens (Human), UniProt Q96S37)
# Experiment: URAT-1 inhibitor activity: [14C]-uric acid uptake in CHO-URAT1(L)GFP#8 (CHO#8) cells, scintillation proximity
# Assay type: cell-based
# Details: inhibition of [14C]-uric acid (30 nM) uptake into CHO#8 cells; compound 0 to 10 μM; 4 parameter logistic fit
# Method in brief: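 CHO cells stably expressing human URAT1 long isoform–eGFP fusion, pre-incubated 1 h in chloride-containing buffer pH 7.4, then given 30 nM [14C]-uric acid with compound (0–10 μM, 0.25% DMSO) in chloride-free gluconate buffer pH 7.4. Uptake measured by scintillation proximity on Cytostar plates.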
# Sequence of URAT-1 transporter (Q96S37 other isoform, or with tags, fused parts or gaps): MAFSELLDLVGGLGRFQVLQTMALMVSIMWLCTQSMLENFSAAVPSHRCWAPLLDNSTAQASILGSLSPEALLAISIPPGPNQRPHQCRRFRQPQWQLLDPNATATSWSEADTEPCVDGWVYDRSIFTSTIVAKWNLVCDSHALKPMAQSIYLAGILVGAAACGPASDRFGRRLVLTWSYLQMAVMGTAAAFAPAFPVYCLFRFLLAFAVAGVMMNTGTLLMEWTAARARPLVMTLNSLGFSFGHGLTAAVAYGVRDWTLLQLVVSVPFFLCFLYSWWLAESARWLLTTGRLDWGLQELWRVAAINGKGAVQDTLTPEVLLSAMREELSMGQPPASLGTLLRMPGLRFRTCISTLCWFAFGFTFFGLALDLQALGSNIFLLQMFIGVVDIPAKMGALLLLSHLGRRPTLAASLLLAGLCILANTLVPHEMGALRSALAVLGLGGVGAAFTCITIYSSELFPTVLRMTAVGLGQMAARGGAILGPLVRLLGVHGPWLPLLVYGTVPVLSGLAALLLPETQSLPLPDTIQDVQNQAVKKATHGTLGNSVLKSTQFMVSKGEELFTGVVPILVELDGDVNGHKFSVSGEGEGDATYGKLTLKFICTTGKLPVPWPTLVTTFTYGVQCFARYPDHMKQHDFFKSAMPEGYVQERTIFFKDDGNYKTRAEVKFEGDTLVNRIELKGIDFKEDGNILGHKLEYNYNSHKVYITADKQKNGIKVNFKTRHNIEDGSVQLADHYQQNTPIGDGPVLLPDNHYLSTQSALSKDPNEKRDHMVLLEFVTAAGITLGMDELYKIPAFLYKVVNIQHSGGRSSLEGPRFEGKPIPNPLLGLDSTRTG
row,SMILES,IC50
1,"Cc1ccc(NS(=O)(=O)c2ccc(Oc3cccc(Cl)c3C#N)cc2)nc1 [Example 221, 4-(3-chloro-2-cyanophenoxy)-N-(5-methylpyridin-2-yl)benzenesulfonamide]",> 10000 nM
2,"COc1ccc(C)c(Oc2ccc(S(=O)(=O)Nc3ccc(F)cn3)cc2C#N)c1 [Example 200, 3-cyano-N-(5-fluoropyridin-2-yl)-4-(5-methoxy-2-methylphenoxy)benzenesulfonamide]",53 nM
3,"Cc1ccc(C(C)C)cc1Oc1ccc(S(=O)(=O)Nc2ccc(F)cn2)cc1C#N [Example 174, 3-cyano-N-(5-fluoropyridin-2-yl)-4-[2-methyl-5-(propan-2-yl)phenoxy]benzenesulfonamide]",> 10000 nM
4,"N#Cc1cc(S(=O)(=O)Nc2ccc(F)cn2)ccc1Oc1ccc(F)cc1Cl [Example 31, 4-(2-chloro-4-fluorophenoxy)-3-cyano-N-(5-fluoropyridin-2-yl)benzenesulfonamide]",78 nM
5,Cc1ncc(Oc2ccc(S(=O)(=O)Nc3ccc(F)cn3)cc2C#N)cc1Cl [compound 238],88 nM
6,"N#Cc1ccc(Oc2ccc(S(=O)(=O)Nc3ncc(F)cn3)cc2C#N)cc1Cl [Example 91, 4-(3-chloro-4-cyanophenoxy)-3-cyano-N-(5-fluoropyrimidin-2-yl)benzenesulfonamide]",1950 nM
7,O=S(=O)(Nc1ncccn1)c1cc(Cl)c(Oc2ccc(F)c(F)c2)cc1F [compound 210],> 10000 nM
8,N#Cc1cc(Oc2cc(F)c(S(=O)(=O)Nc3ncc(F)cn3)cc2Cl)ccc1F [compound 214],> 1150 nM
9,"N#Cc1c(Cl)cccc1Oc1ccc(S(=O)(=O)Nc2cnccn2)cc1 [Example 223, 4-(3-chloro-2-cyanophenoxy)-N-(pyrazin-2-yl)benzenesulfonamide]",> 10000 nM
